In publication PMC8219408, “Switching Cytolytic Nanopores into Antimicrobial Fractal Ruptures by a Single Side Chain Mutation” (ACS nano, 2021):
pKd: −log10 of the molar value. In brackets after ≈: the same amount, converted by molar mass. Read-outs that look alike come from different tables or passages of the source. Bridge positions count the residues as written; N and C are the ends. Square brackets hold non-standard residues; d marks the D form. Peptide text beside a SMILES is read from it. * marks the point of attachment. X1 = CC[C@H](C)CCCCC(=O)*; Dab = NCC[C@H](N)C(=O)O

Assays:
B. subtilis (ATCC 6633) = assay type: cell-based
Method: (§1) MIC values were obtained using broth microdilution against different bacteria following the protocols by Clinical and Laboratory Standards Institute. Specifically, each bacterium (100 μL of 0.5–1 × 10^6 CFU per ml) in Mueller Hinton media broth (Oxoid) was incubated in 96-well microtiter plates at 37 °C on a 3D orbital shaker. 100 μL of serial twofold peptide dilutions (from 100 to 0 μM) were used. Following peptide addition, absorbance (600 nm) was measured in a SpectraMax i3x multi-mode microplate reader (Molecular Devices). The lowest peptide concentrations inhibiting visible bacterial growth after 24 h at 37 °C was defined as MICs. All tests were performed in triplicate.

E. coli (ATCC 15597) = assay type: cell-based
Method: as §1

[1] = tested on: K. pneumoniae (NCTC 5055); assay type: cell-based
Method: as §1

M. luteus (ATCC 49732) = assay type: cell-based
Method: as §1

[2] = tested on: P. aeruginosa (ATCC 27853); assay type: cell-based
Method: as §1

S. aureus (ATCC 6538) = assay type: cell-based
Method: as §1

S. typhimurium (6192) = assay type: cell-based
Method: as §1

Human erythrocytes = assay: Hemolysis assay; assay type: cell-based
Method: For hemolysis measurements 10% (vol/vol) suspensions of human erythrocytes with peptides were used. Phosphate buffer saline (PBS, 10 mM, pH 7.2) was used to rinse human red blood cells (4x) using repeated centrifugation and re-suspension (3 min, 3000 × g). The cells were incubated for 1 h at room temperature in deionized water (fully hemolysed control), with peptide in PBS or just PBS, which was followed by centrifugation (5 min, 10000 × g). The obtained supernatant was then separated from the pellet, and absorbance (550 nm) was measured in a SpectraMax i3x multi-mode microplate reader (Molecular Devices). Absorbance obtained for the suspension that was treated with deionized water gave complete (100%) hemolysis. Table S1 summarises the results, with the values corresponding to % hemolysis for peptide at 250 μM. All tests were performed in triplicate.

[3] = biological target: DLPC/DLPG (3:1 molar ratio) unilamellar vesicles; assay: Isothermal titration calorimetry, anionic vesicles; conditions: ITC, peptide (500 μM) titrated into DLPC/DLPG (3:1) vesicles (380 μM total lipid), 25 °C, one-set binding model, duplicate; read-out: dissociation constant (KD)
Method: The lipids used for the assembly of unilamellar vesicles were from Avanti Polar Lipids: 1,2-dilauroylphosphatidylcholine (DLPC) was used for zwitterionic vesicles, while its mixture with 1,2-dilauroyl-sn-glycero-3-phospho-(1’-rac-glycerol) (DLPG) at a 3:1 molar ratio was used for anionic vesicles. After weighting up the lipid aliquots were dissolved in chloroform and dried under a nitrogen stream until a thin film was formed. The obtained film was subjected to hydration in 10 mM phosphate buffer (pH 7.4), which was followed by vortexing (1x, 2 min) and sonication (1x, 30 min). A hand-held extruder (Avanti Polar lipids) was used to extrude the resulting suspension (29x, polycarbonate filter, 0.05 μm) until a clear solution containing small unilamellar vesicles (SUV) was obtained. The SUVs were then analysed (50 nm) using a Zetasizer Nano (ZEN3600, Malvern Instruments, UK) and re-suspended to a final concentration of 1 mg/mL. The measurements were performed using a low volume disposable cuvette at 25°C. […]
A Microcal isothermal titration calorimeter-200 (ITC-200) was used to carry out all ITC experiments. […] Binding isotherms were recorded for peptides (500 μM) titrated into unilamellar phospholipid vesicles (380 μM, total lipid) in the cell. […]

[4] = K. pneumoniae (NCTC 5055), broth microdilution (CLSI), Mueller Hinton broth, 24 h at 37 °C, triplicate

| SMILES | Minimum inhibitory concentration (B. subtilis (ATCC 6633); ATCC 6633, 24 h) | Minimum inhibitory concentration (E. coli (ATCC 15597); ATCC 15597, 24 h) | Minimum inhibitory concentration ([1]; NCTC 5055, 24 h) | Minimum inhibitory concentration (M. luteus (ATCC 49732); ATCC 49732, 24 h) | Minimum inhibitory concentration ([2]; ATCC 27853, 24 h) | Minimum inhibitory concentration (S. aureus (ATCC 6538); ATCC 6538, 24 h) | Minimum inhibitory concentration (S. typhimurium (6192); 6192, 24 h) | % hemolysis, at 250 μM (Human erythrocytes; 250 µM, pH 7.2) | pKd [3] | hemolytic activity (in words) (Human erythrocytes) | Minimum inhibitory concentration [1, 4] | Minimum inhibitory concentration (B. subtilis (ATCC 6633); B. subtilis (ATCC 6633), broth microdilution (CLSI), Mueller Hinton broth, 24 h at 37 °C, triplicate) | Minimum inhibitory concentration (E. coli (ATCC 15597); E. coli (ATCC 15597), broth microdilution (CLSI), Mueller Hinton broth, 0.5–1 × 10^6 CFU per ml, 24 h at 37 °C, absorbance 600 nm, triplicate) | Minimum inhibitory concentration (M. luteus (ATCC 49732); M. luteus (ATCC 49732), broth microdilution (CLSI), Mueller Hinton broth, 24 h at 37 °C, triplicate) | Minimum inhibitory concentration ([2]; P. aeruginosa (ATCC 27853), broth microdilution (CLSI), Mueller Hinton broth, 24 h at 37 °C, triplicate) | Minimum inhibitory concentration (S. aureus (ATCC 6538); S. aureus (ATCC 6538), broth microdilution (CLSI), Mueller Hinton broth, 24 h at 37 °C, triplicate) | Minimum inhibitory concentration (S. typhimurium (6192); S. typhimurium (6192), broth microdilution (CLSI), Mueller Hinton broth, 24 h at 37 °C, triplicate) | % hemolysis, at 250 μM (Human erythrocytes; peptide at 250 μM, 10% (vol/vol) human erythrocytes in PBS pH 7.2, 1 h at room temperature, absorbance 550 nm, deionized water = 100%, triplicate) |
| --- | --- | --- | --- | --- | --- | --- | --- | --- | --- | --- | --- | --- | --- | --- | --- | --- | --- | --- |
| CC(C)C[C@H](NC(=O)[C@H](CCCNC(=N)N)NC(=O)[C@H](CC(C)C)NC(=O)[C@H](C)NC(=O)[C@H](CC(C)C)NC(=O)[C@H](CCCNC(=N)N)NC(=O)[C@H](CC(C)C)NC(=O)[C@H](CC(C)C)NC(=O)[C@@H](N)CCCNC(=N)N)C(N)=O [bienA9] (H-RLLRLALRL-NH2; N-terminus assumed) | 6 µM (≈ 6.73 µg/mL) | 6 µM (≈ 6.73 µg/mL) | 50 µM (≈ 56.1 µg/mL) | 1.5 µM (≈ 1.68 µg/mL) | 50 µM (≈ 56.1 µg/mL) | 25 µM (≈ 28.1 µg/mL) | 50 µM (≈ 56.1 µg/mL) | 25% | 6.77 |  |  |  |  |  |  |  |  |  |
| CC(C)C[C@H](NC(=O)[C@H](CC(C)C)NC(=O)[C@H](CCCNC(=N)N)NC(=O)[C@H](CC(C)C)NC(=O)[C@H](C)NC(=O)[C@H](CC(C)C)NC(=O)[C@H](CCCNC(=N)N)NC(=O)[C@H](CC(C)C)NC(=O)[C@H](CC(C)C)NC(=O)[C@@H](N)CCCNC(=N)N)C(N)=O [bienA10] (H-RLLRLALRLL-NH2; N-terminus assumed) | 1.5 µM (≈ 1.85 µg/mL) | 3 µM (≈ 3.71 µg/mL) | 3 µM (≈ 3.71 µg/mL) | 1.5 µM (≈ 1.85 µg/mL) | 25 µM (≈ 30.9 µg/mL) | 3 µM (≈ 3.71 µg/mL) | 6 µM (≈ 7.41 µg/mL) | 25% |  |  |  |  |  |  |  |  |  |  |
| CC(C)C[C@H](NC(=O)[C@H](C)NC(=O)[C@H](CC(C)C)NC(=O)[C@H](CCCNC(=N)N)NC(=O)[C@H](CC(C)C)NC(=O)[C@H](CC(C)C)NC(=O)[C@@H](N)CCCNC(=N)N)C(=O)N[C@@H](CCCNC(=N)N)C(=O)N[C@@H](CC(C)C)C(=O)N[C@@H](CC(C)C)C(=O)N[C@@H](CCCNC(=N)N)C(N)=O [bienA11] (H-RLLRLALRLLR-NH2; N-terminus assumed) | 6 µM (≈ 8.35 µg/mL) | 3 µM (≈ 4.18 µg/mL) | 6 µM (≈ 8.35 µg/mL) | 1.5 µM (≈ 2.09 µg/mL) | 3 µM (≈ 4.18 µg/mL) | 3 µM (≈ 4.18 µg/mL) | 12 µM (≈ 16.7 µg/mL) | 25% |  | hemolytic |  |  |  |  |  |  |  |  |
| CC(C)C[C@H](NC(=O)[C@H](CC(C)C)NC(=O)[C@H](CCCNC(=N)N)NC(=O)[C@H](CC(C)C)NC(=O)[C@H](CCCCN)NC(=O)[C@H](CC(C)C)NC(=O)[C@H](CCCNC(=N)N)NC(=O)[C@H](CC(C)C)NC(=O)[C@H](CC(C)C)NC(=O)[C@@H](N)CCCNC(=N)N)C(N)=O [bienK10] (H-RLLRLKLRLL-NH2; N-terminus assumed) | 6 µM (≈ 7.76 µg/mL) | 3 µM (≈ 3.88 µg/mL) | > 50 µM | 1.5 µM (≈ 1.94 µg/mL) | 25 µM (≈ 32.3 µg/mL) | 25 µM (≈ 32.3 µg/mL) | 50 µM (≈ 64.6 µg/mL) | 0% |  |  |  |  |  |  |  |  |  |  |
| CC(C)C[C@H](NC(=O)[C@H](CC(C)C)NC(=O)[C@H](CCCNC(=N)N)NC(=O)[C@H](CC(C)C)NC(=O)[C@H](CCCCN)NC(=O)[C@H](CC(C)C)NC(=O)[C@H](CCCNC(=N)N)NC(=O)[C@H](CC(C)C)NC(=O)[C@H](CC(C)C)NC(=O)[C@@H](N)CCCNC(=N)N)C(=O)N[C@@H](CCCNC(=N)N)C(N)=O [bienK11] (H-RLLRLKLRLLR-NH2) | 3 µM (≈ 4.35 µg/mL) | 3 µM (≈ 4.35 µg/mL) | > 50 µM | 1.5 µM (≈ 2.17 µg/mL) | 12 µM (≈ 17.4 µg/mL) | 12 µM (≈ 17.4 µg/mL) | 50 µM (≈ 72.4 µg/mL) | 0% |  | non-hemolytic |  |  |  |  |  |  |  |  |
| CC[C@H](C)[C@H](NC(=O)CN)C(=O)NCC(=O)N[C@@H](C)C(=O)N[C@H](C(=O)N[C@@H](CC(C)C)C(=O)N[C@@H](CCCCN)C(=O)N[C@H](C(=O)N[C@@H](CC(C)C)C(=O)N[C@H](C(=O)N[C@H](C(=O)NCC(=O)N[C@@H](CC(C)C)C(=O)N1CCC[C@H]1C(=O)N[C@@H](C)C(=O)N[C@@H](CC(C)C)C(=O)N[C@H](C(=O)N[C@@H](CO)C(=O)N[C@@H](Cc1c[nH]c2ccccc12)C(=O)N[C@H](C(=O)N[C@@H](CCCCN)C(=O)N[C@@H](CCCNC(=N)N)C(=O)N[C@@H](CCCCN)C(=O)N[C@@H](CCCNC(=N)N)C(=O)N[C@@H](CCC(N)=O)C(=O)N[C@@H](CCC(N)=O)C(N)=O)[C@@H](C)CC)[C@@H](C)CC)[C@@H](C)O)[C@@H](C)O)C(C)C)C(C)C [melittin, reference compound] |  |  |  |  |  |  |  |  |  |  | 3 µM (≈ 8.54 µg/mL) |  |  |  |  |  |  |  |
| CC[C@H](C)CCCCC(=O)N[C@@H](CCN)C(=O)N[C@H](C(=O)N[C@@H](CCN)C(=O)N[C@H]1CCNC(=O)[C@H]([C@@H](C)O)NC(=O)[C@H](CCN)NC(=O)[C@H](CCN)NC(=O)[C@H](CC(C)C)NC(=O)[C@@H](Cc2ccccc2)NC(=O)[C@H](CCN)NC1=O)[C@@H](C)O [polymyxin B, reference compound] (X1-[Dab]T[Dab][Dab][Dab][dF]L[Dab][Dab]T; lactam 4-C (inferred); N-terminus assumed) |  |  |  |  |  |  |  |  |  |  | 3 µM (≈ 3.61 µg/mL) | 3 µM (≈ 3.61 µg/mL) | 1.5 µM (≈ 1.81 µg/mL) | 1.5 µM (≈ 1.81 µg/mL) | 1.5 µM (≈ 1.81 µg/mL) | 25 µM (≈ 30.1 µg/mL) | 1.5 µM (≈ 1.81 µg/mL) | 5% |
